Laboratory results reported in US8455480B2, “Active agent combinations having insecticidal and acaricidal properties” (Bayer Cropscience AG, priority 2007, dated 2013).

Key:
Myzus persicae = Myzus persicae test (spray on infested cabbage leaves); type: in vivo; details: single active substance
[1] = tested on: Phaedon cochleariae larvae; assay: Phaedon cochleariae larvae test (sprayed cabbage leaves); details: for Destruction in % after 2 d: single active substance
[2] = Phaedon cochleariae, in Brassica oleracea, 144 h, read-out: Destruction in % after 6 d

C/C(=N\C#N)N(C)Cc1ccc(Cl)nc1 [Acetamiprid]
Destruction in % after 6 d (Myzus persicae; 0.032 g/ha): 0%
Destruction in % after 2 d ([1]; 4 g/ha): 0%

CN/C(=N\[N+](=O)[O-])NCc1cnc(Cl)s1 [Clothianidin]
Destruction in % after 1 d (Myzus persicae; 0.16 g/ha): 0%
Destruction in % after 6 d (Myzus persicae; 0.16 g/ha): 10%
pest or weed control at 4 g/ha [1, 2]: 33%

O=C1C=C(N(CCF)Cc2ccc(Cl)nc2)CO1 [Compound (I-4), 4-{[(6-chloropyrid-3-yl)methyl](2-fluoroethyl)amino}furan-2(5H)-one]
Destruction in % after 1 d (Myzus persicae; 4 g/ha): 50%
Destruction in % after 6 d (Myzus persicae; 4 g/ha): 70%
pest or weed control at 100 g/ha [1, 2]: 0%

O=C1C=C(N(Cc2ccc(Cl)nc2)CC(F)F)CO1 [Compound (I-5), 4-{[(6-chloropyrid-3-yl)methyl](2,2-difluoroethyl)amino}furan-2(5H)-one]
Destruction in % after 6 d (Myzus persicae; 0.8 g/ha): 30%
pest or weed control at 20 g/ha [1, 2]: 0%
pest or weed control at 100 g/ha [1, 2]: 50%
Destruction in % after 2 d ([1]; 100 g/ha): 33%

CN(Cc1cnc(Cl)c(F)c1)C1=CC(=O)OC1 [Compound (I-6), 4-{[(6-chloro-5-fluoropyrid-3-yl)methyl](methyl)amino}furan-2(5H)-one]
pest or weed control at 100 g/ha [1, 2]: 0%
Destruction in % after 2 d ([1]; 100 g/ha): 0%

CN/C(=N\[N+](=O)[O-])NCC1CCOC1 (stereo not drawn) [Dinotefuran]
pest or weed control at 4 g/ha [1, 2]: 0%

O=[N+]([O-])/N=C1\NCCN1Cc1ccc(Cl)nc1 [Imidacloprid]
Destruction in % after 1 d (Myzus persicae; 0.16 g/ha): 20%
pest or weed control at 4 g/ha [1, 2]: 0%

N#C/N=C1\SCCN1Cc1ccc(Cl)nc1 [Thiacloprid]
Destruction in % after 1 d (Myzus persicae; 0.16 g/ha): 20%
Destruction in % after 6 d (Myzus persicae; 0.16 g/ha): 0%
pest or weed control at 4 g/ha [1, 2]: 17%
Destruction in % after 2 d ([1]; 4 g/ha): 0%

CN1COCN(Cc2cnc(Cl)s2)/C1=N/[N+](=O)[O-] [Thiamethoxam]
Destruction in % after 6 d (Myzus persicae; 0.032 g/ha): 0%
Destruction in % after 6 d (Myzus persicae; 0.16 g/ha): 30%
pest or weed control at 4 g/ha [1, 2]: 17%
